Assay results from patent US9629941B2, “Hydrogel coated scaffold” (CORTICALIS AS, priority 2012, dated 2017).
Where a SMILES comes first, the peptide text is derived from it.

Tests used:
MC3T3-E1 cells [1] = assay: Gene expression of cell adhesion and osteoblast markers by real-time RT-PCR, cells on alginate hydrogels; type: cell-based, mouse; details: 50 μg/ml in 2% alginate hydrogel
Method: (§1) The mouse osteoblastic cell line MC3T3-E1 (DSMZ, Braunschweig, Germany) was maintained as previously described (Tiainen H et al., 2011). Before seeding, 24-well culture plates containing crosslinked alginate hydrogels were washed with 750 μl of culture media to remove the excess of CaCl2. After evaluation of the efficiency of cell adhesion on 2% alginate gel using different cell densities, for the final experiments, cells were seeded at a density of 100 000 cells/well. Media was refreshed twice a week. Culture media was collected 24 h after seeding to study cell viability. Cells were harvested at days 14 and 21 to analyze gene expression of adhesion and osteogenic-related markers using real-time RT-PCR. Cultures were routinely observed using light microscopy (Leica DMIRB, Leica Microsystems Wetzlar GmbH, Germany).
Total RNA was isolated using Tripure® (Roche Diagnostics, Mannheim, Germany), according to the manufacturer's protocol. Total RNA was quantified at 260 nm using a Nanodrop spectrophotometer (NanoDrop Technologies, Wilmington, Del., USA).
The same amount of RNA (350 ng) was reverse transcribed to cDNA using high capacity RNA-to-cDNA kit (Applied Biosystems, Foster City, Calif.), according to the protocol of the supplier. Aliquots of each cDNA were frozen (−20° C.) until the PCR reactions were carried out.
Real-time PCR was performed in the Lightcycler 480® (Roche Diagnostics, Mannheim, Germany) using SYBR green detection. Real-time PCR was done for two reference genes (18SrRNA and glyceraldehyde-3-phosphate dehydrogenase (GAPDH)) and ten target genes (integrin alpha 8 (Itga8), integrin beta1 (Itgb1), integrin beta 3 (Itgb3), fibronectin 1 (Fn11), bone morphogenetic protein 2 (Bmp2), collagen type I (Coll-I), bone sialoprotein (Bsp), alkaline phosphatase (Alp), osteocalcin (Oc) and osteopontin (Opn)).
The primer sequences are detailed in Table 2. Reaction conditions and relative quantification have been done as previously described (Tiainen H et al., 2011).

MC3T3-E1 cells [2] = assay: Cell viability: LDH activity in culture media of cells on alginate hydrogels; type: cell-based, mouse; details: 24 h; 50 μg/ml in 2% alginate hydrogel
Method: as §1
The LDH activity determined in the culture media after 24 h was taken as an indicator of membrane leakage or cell lysis. The activity of the cytosolic enzyme was estimated as previously described (Rupert M at al., 2011).

[3] = Peptide release profile from 2% alginate hydrogel (fluorescence spectroscopy); type: physicochemical
Method: To study the peptide release profile, P2 was labeled with FITC. The release of peptide contained into the 2% alginate hydrogel (50 μg/ml) was quantified by fluorescence spectroscopy. First, alginate hydrogels were washed with culture media to remove the excess of CaCl2. Then, 750 μl of cell culture media were added onto peptide loaded alginate hydrogel. The samples were incubated at 37° C. and 5% CO2 for 21 days and cell culture media was changed twice a week. At prefixed time points (24 h, 4 d, 7 d, 11 d, 14 d, 18 d and 21 d), supernatants were collected and analyzed by fluorescence spectroscopy (λ ex 490 nm and λ em 525 nm) to determine the amount of peptide released to the media. The amount of peptide released during the washing step was also measured. The experiment was performed three times, and each sample analyzed in triplicate.
Relative fluorescence units were correlated with the amount of peptide released using a linear standard curve for each time point.

[4] = Peptide 2 release profile from TiO2 scaffolds coated with 2% alginate gel (UV-Vis 206 nm); type: physicochemical; details: P2-alginate-coated TiO2 scaffolds, distilled water, 37° C.
Method: TiO2 scaffolds coated with 2% alginate containing peptide 2 (P2-alginate-coated scaffold) were placed into 48-well plates (Nunc GmBh & Co. Kg, Langenselbold, Germany) containing 1 ml distilled water (pH 7.4). In order to mimic cell culture conditions, the samples were agitated on an orbital shaker at 200 rpm (IKA® Schüttler MTS 2, Germany) for 6 h at 37° C. and in humidity conditions (using a distilled water container). Then, samples were maintained at 37° C. in a humidified atmosphere for up to 21 days. At prefixed time points (2d, 5d, 7d, 9d, 12d, 14d, 16d, 19d and 21d), distilled water was collected and fresh distilled water was added into each well. Sample absorbances were analyzed by UV-Vis spectrophotometer (PerkinElmer® Lambda 25 UV/Vis Systems, USA) at a wavelength of 206 nm to determine the amount of peptide released. In parallel, […] scaffolds coated with one layer of 2% alginate gel were used as control to subtract absorbance values obtained from degradation products from alginate.
Relative absorbance units were correlated with the amount of peptide released using a linear standard curve for each time point and the cumulative P2 released was then calculated. The experiment was performed in triplicate.

[5] = system: primary human osteoblasts; assay: Cytotoxicity assay (LDH activity in culture medium), SIM containing scaffolds; type: cell-based; details: for LDH activity compared to alginate-coated scaffolds without SIM: 14-day period
Method: Cells from passages 7-9 were seeded on scaffolds at a density of 400.000 cells/ml. […] Scaffolds soaked with culture medium were placed in 48-well culture plates. […] The culture medium was replaced every other day. Collected medium was saved for use in cytotoxicity, alkaline phosphatase (ALP) activity and protein expression assays.

[6] = FITC-labeled P2, 50 μg/ml in 2% alginate hydrogel, culture media, 37° C.

| Compound | Expression of Opn (MC3T3-E1 cells [1]; 14 days, vs control) | Fn1 mRNA levels (MC3T3-E1 cells [1]; 14 days, vs control) | Itgb1 mRNA levels (MC3T3-E1 cells [1]; 14 days, vs control) | Itgb3 mRNA levels (MC3T3-E1 cells [1]; 14 days, vs control) | Fn1 mRNA levels (MC3T3-E1 cells [1]; 21 days) | Itgb3 mRNA levels (MC3T3-E1 cells [1]; 21 days) | ALP mRNA levels (MC3T3-E1 cells [1]; 21 days, vs control) | Oc mRNA levels (MC3T3-E1 cells [1]; 21 days, vs control) | further results |
| --- | --- | --- | --- | --- | --- | --- | --- | --- | --- |
| PHQPMQPQPPVHPMQPLPPQPPLPP (Synthetic biomineralizing peptide) [P6, synthetic proline-rich peptide] | decreased significantly | decreased significantly | significantly decreased | decreased significantly | no differences were observed | no differences were observed | significantly decreased | increased | Bmp2 relative mRNA levels (MC3T3-E1 cells [1]; 14 days, sentence ends 'compared to EMD'): increased significantly; ALP mRNA levels (MC3T3-E1 cells [1]; 14 days, vs control): significantly decreased; Itgb1 mRNA levels (MC3T3-E1 cells [1]; 21 days, vs EMD): reduced significantly |
| CC(C)C[C@H](NC(=O)[C@@H]1CCCN1)C(=O)N[C@H](C(=O)N1CCC[C@H]1C(=O)N[C@@H](CO)C(=O)N[C@@H](CCC(N)=O)C(=O)N1CCC[C@H]1C(=O)N[C@@H](CC(C)C)C(=O)N[C@H](C(=O)N1CCC[C@H]1C(=O)N[C@@H](CO)C(=O)N[C@@H](CCC(N)=O)C(=O)N1CCC[C@H]1C(=O)N[C@@H](CC(C)C)C(=O)N[C@H](C(=O)N1CCC[C@H]1C(=O)N[C@@H](CO)C(=O)N[C@@H](CCC(N)=O)C(=O)N1CCC[C@H]1C(=O)N[C@@H](CCC(N)=O)C(=O)N1CCC[C@H]1C(=O)N1CCC[C@H]1C(=O)N[C@@H](CC(C)C)C(=O)N1CCC[C@H]1C(=O)N1CCC[C@H]1C(=O)O)C(C)C)C(C)C)C(C)C [P2] (H-PLVPSQPLVPSQPLVPSQPQPPLPP-OH) | decreased significantly | decreased significantly | significantly decreased | decreased significantly | no differences were observed | no differences were observed | significantly decreased | – | cell viability compared to EMD (MC3T3-E1 cells [2]): significantly increased; total peptide theoretically contained in the alginate hydrogel not released after 21 days ([3]; FITC-labeled P2, 50 μg/ml in 2% alginate hydrogel, 37° C.): 5.6%; burst release of the peptide during the first 24 h of incubation [3, 6]: 54.67%; peptide slowly released up to 11 days [3, 6]: 25.8%; loaded peptide released during the washing step ([3]; washing of alginate hydrogels with culture media to remove excess CaCl2): 12.7%; Bmp2 relative mRNA levels (MC3T3-E1 cells [1]; 21 days, vs EMD): decreased; amount of peptide released after 5 days [4]: 9.4 % of the cumulative amount rel; burst release of the peptide during the first 2 days of incubation [4]: 42.8 % of the cumulative amount of P2 released after 21 days |
| PLVPSSPLVPCCPLVPCCPSPPLPP (Synthetic biomineralizing peptide) [P5, synthetic proline-rich peptide] | – | – | – | – | – | – | – | increased | toxic effects compared to EMD and to untreated alginate gel (MC3T3-E1 cells [2]): significantly lower toxic effects; Itga8 mRNA expression (MC3T3-E1 cells [1]; 21 days, vs control alginate hydrogel): increased |
| CCC(C)(C)C(=O)O[C@H]1C[C@@H](C)C=C2C=C[C@H](C)[C@H](CC[C@@H]3C[C@@H](O)CC(=O)O3)[C@H]21 [SIM, simvastatin] | – | – | – | – | – | – | – | – | LDH activity compared to alginate-coated scaffolds without SIM ([5]; 10 nM SIM): Neither of the SIM concentrations caused a significant increase; LDH activity compared to alginate-coated scaffolds without SIM ([5]; 10 μM SIM): Neither of the SIM concentrations caused a significant increase; LDH activity, scaffolds with 10 μM SIM compared to scaffolds with 10 nM SIM ([5]; throughout the 14-day period): higher LDH activity |
